{"source": "patent US20230085307A1", "about": "“PYRIDAZINONE COMPOUND AND HERBICIDE” (NISSAN CHEMICAL CORPORATION, priority 2019, published 2023)", "key": {"[1]": {"tested_on": "southern crabgrass", "assay": "Test Example 5: herbicidal effect by foliage application, plastic box (Table 20, symbol F)", "type": "in vivo, southern crabgrass (Digitaria ciliaris)", "details": "foliage application, 320 g/ha, evaluated three weeks after application", "outline": "(§1)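 Plants were sown into sterilized diluvial soil under about 1.5 cm cover and kept in a greenhouse at 25° C. to 30° C. Fourteen days on, foliage received an even spray of the diluted emulsion. Herbicidal or crop effect was judged three weeks afterwards.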"}, "[2]": {"tested_on": "windgrass", "assay": "Test Example 5: herbicidal effect by foliage application, plastic box (Table 20, symbol L)", "type": "in vivo, windgrass (Apera spica-venti)", "details": "foliage application, 320 g/ha, evaluated three weeks after application", "outline": "as §1"}, "[3]": {"tested_on": "velvetleaf", "assay": "Test Example 5: herbicidal effect by foliage application, plastic box (Table 20, symbol M)", "type": "in vivo, velvetleaf (Abutilon theophrasti)", "details": "foliage application, 320 g/ha, evaluated three weeks after application", "outline": "as §1"}, "[4]": {"tested_on": "lambsquarters", "assay": "Test Example 5: herbicidal effect by foliage application, plastic box (Table 20, symbol O)", "type": "in vivo, lambsquarters (Chenopodium album)", "details": "foliage application, 320 g/ha, evaluated three weeks after application", "outline": "as §1"}, "[5]": {"tested_on": "Italian ryegrass", "assay": "Test Example 4: herbicidal effect by soil treatment (Table 19, symbol K)", "type": "in vivo, Italian ryegrass (Lolium multiflorum)", "details": "320 g/ha", "outline": "(§2)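 Pre-emergence style soil spray: seeds under ~1.5 cm sterilized diluvial soil received a uniform coat of emulsion diluted to the predetermined herbicide amount. Greenhouse 25–30° C; readout at week three on previously defined criteria.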"}, "[6]": {"tested_on": "green foxtail", "assay": "Test Example 4: herbicidal effect by soil treatment (Table 19, symbol G)", "type": "in vivo, green foxtail (Setaria viridis)", "details": "320 g/ha", "outline": "as §2"}, "[7]": {"tested_on": "wild oat", "assay": "Test Example 5: herbicidal effect by foliage application, plastic box (Table 20, symbol I)", "type": "in vivo, wild oat (Avena fatua)", "details": "foliage application, 320 g/ha, evaluated three weeks after application", "outline": "as §1"}, "[8]": {"tested_on": "blackgrass", "assay": "Test Example 5: herbicidal effect by foliage application, plastic box (Table 20, symbol J)", "type": "in vivo, blackgrass (Alopecurus myosuroides)", "details": "foliage application, 320 g/ha, evaluated three weeks after application", "outline": "as §1"}, "[9]": {"tested_on": "persian speedwell", "assay": "Test Example 4: herbicidal effect by soil treatment (Table 19, symbol R)", "type": "in vivo, Persian speedwell (Veronica persica)", "details": "320 g/ha", "outline": "as §2"}, "[10]": {"tested_on": "barnyard grass", "assay": "Test Example 3: herbicidal effect by foliage application, Wagner pot (Table 18, symbol H)", "type": "in vivo, barnyard grass (Echinochloa crus-galli)", "details": "320 g/ha", "outline": "(§3)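 Plants were sown in alluvial soil held under 0.1–0.5 cm standing water and grown 14 days in a greenhouse at 25–30 °C. An emulsifiable formulation, water-diluted to the set dose, was then sprayed onto the foliage, and effects were scored three weeks later using previously defined criteria.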"}, "[11]": {"tested_on": "blackgrass", "assay": "Test Example 4: herbicidal effect by soil treatment (Table 19, symbol J)", "type": "in vivo, blackgrass (Alopecurus myosuroides)", "details": "320 g/ha", "outline": "as §2"}, "[12]": {"tested_on": "Chinese sprangletop", "assay": "Test Example 3: herbicidal effect by foliage application, Wagner pot (Table 18, symbol D)", "type": "in vivo, chinese sprangletop (Leptochloa chinensis)", "details": "320 g/ha", "outline": "as §3"}, "[13]": {"tested_on": "barnyard grass", "assay": "Test Example 5: herbicidal effect by foliage application, plastic box (Table 20, symbol H)", "type": "in vivo, barnyard grass (Echinochloa crus-galli)", "details": "foliage application, 320 g/ha, evaluated three weeks after application", "outline": "as §1"}, "[14]": {"tested_on": "Italian ryegrass", "assay": "Test Example 5: herbicidal effect by foliage application, plastic box (Table 20, symbol K)", "type": "in vivo, Italian ryegrass (Lolium multiflorum)", "details": "foliage application, 320 g/ha, evaluated three weeks after application", "outline": "as §1"}, "[15]": {"tested_on": "persian speedwell", "assay": "Test Example 5: herbicidal effect by foliage application, plastic box (Table 20, symbol R)", "type": "in vivo, Persian speedwell (Veronica persica)", "details": "foliage application, 320 g/ha, evaluated three weeks after application", "outline": "as §1"}, "[16]": {"tested_on": "redroot pigweed", "assay": "Test Example 4: herbicidal effect by soil treatment (Table 19, symbol N)", "type": "in vivo, redroot pigweed (Amaranthus retroflexus)", "details": "320 g/ha", "outline": "as §2"}, "[17]": {"tested_on": "southern crabgrass", "assay": "Test Example 4: herbicidal effect by soil treatment (Table 19, symbol F)", "type": "in vivo, southern crabgrass (Digitaria ciliaris)", "details": "320 g/ha", "outline": "as §2"}, "[18]": {"tested_on": "chickweed", "assay": "Test Example 4: herbicidal effect by soil treatment (Table 19, symbol P)", "type": "in vivo, common chickweed (Stellaria media)", "details": "320 g/ha", "outline": "as §2"}, "[19]": {"tested_on": "wild oat", "assay": "Test Example 4: herbicidal effect by soil treatment (Table 19, symbol I)", "type": "in vivo, wild oat (Avena fatua)", "details": "320 g/ha", "outline": "as §2"}, "[20]": {"tested_on": "rice flat sedge", "assay": "Test Example 3: herbicidal effect by foliage application, Wagner pot (Table 18, symbol E)", "type": "in vivo, rice flat sedge (Cyperus iria)", "details": "320 g/ha", "outline": "as §3"}, "[21]": {"tested_on": "lambsquarters", "assay": "Test Example 4: herbicidal effect by soil treatment (Table 19, symbol O)", "type": "in vivo, lambsquarters (Chenopodium album)", "details": "320 g/ha", "outline": "as §2"}, "[22]": {"tested_on": "velvetleaf", "assay": "Test Example 4: herbicidal effect by soil treatment (Table 19, symbol M)", "type": "in vivo, velvetleaf (Abutilon theophrasti)", "details": "320 g/ha", "outline": "as §2"}, "[23]": {"tested_on": "chickweed", "assay": "Test Example 5: herbicidal effect by foliage application, plastic box (Table 20, symbol P)", "type": "in vivo, common chickweed (Stellaria media)", "details": "foliage application, 320 g/ha, evaluated three weeks after application", "outline": "as §1"}, "[24]": {"tested_on": "redroot pigweed", "assay": "Test Example 5: herbicidal effect by foliage application, plastic box (Table 20, symbol N)", "type": "in vivo, redroot pigweed (Amaranthus retroflexus)", "details": "foliage application, 320 g/ha, evaluated three weeks after application", "outline": "as §1"}, "[25]": {"tested_on": "windgrass", "assay": "Test Example 4: herbicidal effect by soil treatment (Table 19, symbol L)", "type": "in vivo, windgrass (Apera spica-venti)", "details": "320 g/ha", "outline": "as §2"}, "[26]": {"tested_on": "green foxtail", "assay": "Test Example 5: herbicidal effect by foliage application, plastic box (Table 20, symbol G)", "type": "in vivo, green foxtail (Setaria viridis)", "details": "foliage application, 320 g/ha, evaluated three weeks after application", "outline": "as §1"}, "[27]": {"tested_on": "barnyard grass", "assay": "Test Example 4: herbicidal effect by soil treatment (Table 19, symbol H)", "type": "in vivo, barnyard grass (Echinochloa crus-galli)", "details": "320 g/ha", "outline": "as §2"}}}
{"smiles": "Cc1nn(C)c(=O)c(-c2c(-c3ccc(Cl)cc3)sc3ccc(Cl)cc23)c1O", "note": "[2-099]", "values": [{"measurement": "herbicidal effect on F: southern crabgrass", "setting": "[1]", "value": "5 (Herbicidal rate of 90% or more (almost completely withered))"}, {"measurement": "herbicidal effect on L: windgrass", "setting": "[2]", "value": "5 (Herbicidal rate of 90% or more (almost completely withered))"}, {"measurement": "herbicidal effect on M: velvetleaf", "setting": "[3]", "value": "5 (Herbicidal rate of 90% or more (almost completely withered))"}, {"measurement": "herbicidal effect on O: lambsquarters", "setting": "[4]", "value": "5 (Herbicidal rate of 90% or more (almost completely withered))"}, {"measurement": "herbicidal effect rating, K: Italian ryegrass", "setting": "[5]", "value": "5 (Herbicidal rate of 90% or more (almost completely withered))"}, {"measurement": "herbicidal effect rating, G: green foxtail", "setting": "[6]", "value": "2 (Herbicidal rate of 20% or more and less than 40%)"}, {"measurement": "herbicidal effect on I: wild oat", "setting": "[7]", "value": "5 (Herbicidal rate of 90% or more (almost completely withered))"}, {"measurement": "herbicidal effect on J: blackgrass", "setting": "[8]", "value": "4 (Herbicidal rate of 70% or more and less than 90%)"}, {"measurement": "herbicidal effect rating, R: persian speedwell", "setting": "[9]", "value": "1 (Herbicidal rate of 5% or more and less than 20%)"}, {"measurement": "herbicidal effect on H (barnyard grass), rating 0-5", "setting": "[10]", "value": "5 (Herbicidal rate of 90% or more (almost completely withered))"}, {"measurement": "herbicidal effect rating, J: blackgrass", "setting": "[11]", "value": "2 (Herbicidal rate of 20% or more and less than 40%)"}, {"measurement": "herbicidal effect on D (Chinese sprangletop), rating 0-5", "setting": "[12]", "value": "4 (Herbicidal rate of 70% or more and less than 90%)"}, {"measurement": "herbicidal effect on H: barnyard grass", "setting": "[13]", "value": "5 (Herbicidal rate of 90% or more (almost completely withered))"}, {"measurement": "herbicidal effect on K: Italian ryegrass", "setting": "[14]", "value": "5 (Herbicidal rate of 90% or more (almost completely withered))"}, {"measurement": "herbicidal effect on R: persian speedwell", "setting": "[15]", "value": "5 (Herbicidal rate of 90% or more (almost completely withered))"}, {"measurement": "herbicidal effect rating, N: redroot pigweed", "setting": "[16]", "value": "3 (Herbicidal rate of 40% or more and less than 70%)"}, {"measurement": "herbicidal effect rating, F: southern crabgrass", "setting": "[17]", "value": "0 (Herbicidal rate of 5% or less (almost no effect))"}, {"measurement": "herbicidal effect rating, P: chickweed", "setting": "[18]", "value": "4 (Herbicidal rate of 70% or more and less than 90%)"}, {"measurement": "herbicidal effect rating, I: wild oat", "setting": "[19]", "value": "0 (Herbicidal rate of 5% or less (almost no effect))"}, {"measurement": "herbicidal effect on E (rice flat sedge), rating 0-5", "setting": "[20]", "value": "5 (Herbicidal rate of 90% or more (almost completely withered))"}, {"measurement": "herbicidal effect rating, O: lambsquarters", "setting": "[21]", "value": "3 (Herbicidal rate of 40% or more and less than 70%)"}, {"measurement": "herbicidal effect rating, M: velvetleaf", "setting": "[22]", "value": "0 (Herbicidal rate of 5% or less (almost no effect))"}, {"measurement": "herbicidal effect on P: chickweed", "setting": "[23]", "value": "5 (Herbicidal rate of 90% or more (almost completely withered))"}, {"measurement": "herbicidal effect on N: redroot pigweed", "setting": "[24]", "value": "5 (Herbicidal rate of 90% or more (almost completely withered))"}, {"measurement": "herbicidal effect rating, L: windgrass", "setting": "[25]", "value": "4 (Herbicidal rate of 70% or more and less than 90%)"}, {"measurement": "herbicidal effect on G: green foxtail", "setting": "[26]", "value": "5 (Herbicidal rate of 90% or more (almost completely withered))"}, {"measurement": "herbicidal effect rating, H: barnyard grass", "setting": "[27]", "value": "0 (Herbicidal rate of 5% or less (almost no effect))"}]}
